Data on five compounds can be found in article PMC11769294, “(E)-1-(3-(3-Hydroxy-4-Methoxyphenyl)-1-(3,4,5-Trimethoxyphenyl)allyl)-1H-1,2,4-Triazole and Related Compounds: Their Synthesis and Biological Evaluation as Novel Antimitotic Agents Targeting Breast Cancer” (Pharmaceuticals, 2025).

Series [1] relates to MCF-10A human mammary epithelial cells. Nature of the series: Cytotoxicity in MCF-10A cells (alamarBlue). Format: cell-based. The conditions noted are these: 10 μM, 24 h. On the procedure:
(§1) Figure 9 Effect of compounds 22a (A) and 22b (B) on the cell viability of non-tumorigenic MCF-10A human mammary epithelial cells at 24, 48, and 72 h. Cells were treated with the compounds 22a and 22b at concentrations of 10 μM, 1 μM, 0.5 μM, and 0.4 μM for 24, 48, or 72 h. […] Cell viability was expressed as a percentage of vehicle control (ethanol 1% (v/v)) and was determined by an alamarBlue assay (average ± SEM of three independent experiments). Two-way ANOVA (Bonferroni post-test) was used to test for statistical significance (*, p < 0.05; **, p < 0.01; ***, p < 0.001).
(§2) HL-60 cells were suspension cells and the seeding density for the viability assay was 25,000 cells/mL. MCF-7 cells (adherent) were cultured in Minimum Essential Media (MEM) with GlutaMAX™-I, supplemented with 1% (v/v) non-essential amino acids, 10% (v/v) fetal bovine serum (FBS), purchased from BD Biosciences (Edmund Halley Road, Oxford, UK), and 1% (v/v) penicillin/streptomycin 5000 U/mL. The MCF-7 cells used in the screening of the compounds during these experiments were mycoplasma-free. The seeding density of MCF-7 in the viability assay was 25,000 cells/mL and 50,000 cells/mL in the FACS assay. Normal breast cells (MCF-10A) (adherent) were cultured in Dulbecco’s Modified Eagle Medium: Nutrient Mixture F-12 (DMEM/F12; Gibco) supplemented with 5% horse serum (Invitrogen, Waltham, MA, USA), 20 ng/mL epidermal growth factor (Merck Millipore, Burlington, MA, USA), 0.5 μg/mL hydrocortisone (Sigma, Kanagawa, Japan), 100 ng/mL cholera toxin (Sigma), 10 μg/mL insulin (Sigma), and penicillin/streptomycin 5000 U/mL (1%) (Gibco, Waltham, MA, USA). […] MDA-MB-231 cells were cultured in Dulbecco’s Modified Eagle Medium, which was supplemented with 10% (v/v) fetal bovine serum (FBS) and 1% (v/v) penicillin/streptomycin 5000 U/mL. When not in use, all cells were kept in liquid nitrogen and frozen in a freezing media made of 90% FBS and 10% DMSO. All cells were grown in an atmosphere of 5% CO2/95% air in T75 culture flasks. The media was changed every 2–3 days and media was always prewarmed to 37 °C. All were sub-cultured every 3–4 days by trypsinization using TrypLE™ Express enzyme when confluence was reached to allow growth, prevent excessive cell death, and minimize the risk of infections derived by over-confluence. For the cell viability assay, the number of cells per milliliter was 25,000 cells/mL while the FACS assay utilized 50,000 cells/mL. Cells were maintained at 37 °C in 5% CO2 in a humidified incubator.
(§3) The biochemical assays were performed in triplicate and on at least three independent occasions to facilitate the determination of mean values. For the viability assay, cells were grown until 80% confluent. Adherent cells such as MCF-7, MDA-MB-231, and MCF-10A were trypsinized to detach them from the flask, counted as previously described, and seeded in 96 well plates with a seeding density of 25,000 cells /mL (200 µL of suspension in each well so that the final number of cells per well was 5000) and 1 × 10^4 cells/well seeding density for suspension HL-60 cells. Adherent cells were incubated for 24 h after being seeded in the 96 well plate and treated on the following day, while suspension cells were treated on the same day of the seeding. In both cases, the incubation time after the treatment with the drug was 72 h. After 68 h incubation, the AlamarBlue was added (20 µL in each well) and the incubation time was completed. After 72 h, the change in color was measured by spectrofluorimetry at an excitation wavelength of 544 nm and emission wavelength of 590 nm. AlamarBlue is a cell viability indicator containing a compound called resazurin. AlamarBlue is water soluble, stable in culture media, non-toxic, and is permeable through the cell membrane. When resazurin (blue) enters the live cells, it is reduced to the fluorescent molecule resorufin (pink).
For orientation: The colour change of resazurin is a common sign of viable cells or microbes.

Series [2] can be described thus: Cytotoxicity in MCF-10A cells (alamarBlue). Type of series: cell-based, human. Conditions: human, MCF-10A non-tumorigenic mammary epithelial cells. The procedure:
as §1, §2, §3

Another series relates to OVCAR-8 (Ovarian Cancer). Nature of the series: NCI60 screen (SRB). Conditions: 48 h; for growth percent: one dose 10 µM. Format: cell-based, human.
The next series relates to SF-268 (CNS Cancer). Nature of the series: NCI60 screen (SRB). Type of series: cell-based, human. The conditions noted are these: 48 h; for growth percent: one dose 10 µM.
Series [3] concerns MDA-MB-231 breast cancer cells. Nature of the series: alamarBlue cell viability assay. Format: cell-based. The conditions noted are these: Homo sapiens. The procedure: HL-60 cells were suspension cells and the seeding density for the viability assay was 25,000 cells/mL. MCF-7 cells (adherent) were cultured in Minimum Essential Media (MEM) with GlutaMAX™-I, supplemented with 1% (v/v) non-essential amino acids, 10% (v/v) fetal bovine serum (FBS), purchased from BD Biosciences (Edmund Halley Road, Oxford, UK), and 1% (v/v) penicillin/streptomycin 5000 U/mL. The MCF-7 cells used in the screening of the compounds during these experiments were mycoplasma-free. The seeding density of MCF-7 in the viability assay was 25,000 cells/mL and 50,000 cells/mL in the FACS assay. […]
The biochemical assays were performed in triplicate and on at least three independent occasions to facilitate the determination of mean values. […] Adherent cells such as MCF-7, MDA-MB-231, and MCF-10A were trypsinized to detach them from the flask, counted as previously described, and seeded in 96 well plates with a seeding density of 25,000 cells /mL (200 µL of suspension in each well so that the final number of cells per well was 5000) and 1 × 10^4 cells/well seeding density for suspension HL-60 cells. […] After 72 h, the change in color was measured by spectrofluorimetry at an excitation wavelength of 544 nm and emission wavelength of 590 nm. […]

In another series the test system is HL-60 (TB) (Leukemia). Nature of the series: NCI60 screen (SRB). Type of series: cell-based, human. The conditions noted are these: for GI50: HL-60(TB), five-dose; for growth percent: HL-60 (TB), one dose 10 µM.
The mark [4] stands for this setting: 1 μM, 24 h, read-out: cell viability.

One may read the IC50 as the concentration that gives 50% inhibition. As usually defined, the GI50 is the concentration giving 50% growth inhibition. Regarding `COc1ccc(/C=C/C(c2cc(OC)c(OC)c(OC)c2)n2cncn2)cc1O` (stereo not shown) [Compound 22b, (E)-5-(3-(1H-1,2,4-Triazol-1-yl)-3-(3,4,5-trimethoxyphenyl)prop-1-en-1-yl)-2-methoxyphenol], the cell death result in series [1] is recorded as “approximately 50%”. In series [2] (72 h), this compound displayed a viability at 72 h, 0.4 µM of more than 80%. The viability at 72 h, 0.5 µM in series [2] (0.5 μM, 72 h, read-out: cell viability) was 80%. For the same compound, in series [2] (setting [4]), the viability at 24 h, 1 µM turned out to be 100%. Further, the viability at 48 h, 1 µM in series [2] (1 μM, read-out: viable cells) is more than 80%. Further, in series [2] (1 μM, 72 h, read-out: cell viability), the viability at 72 h, 1 µM stood at 55%. The viability at 48 h, 10 µM in series [2] (10 μM, read-out: viable cells) was approximately 30%. In addition, the viability at 72 h, 10 µM in series [2] (10 μM, 72 h, read-out: cell viability) was found to be 24%. Further, the half-inhibitory concentration (IC50) in the series on OVCAR-8 (Ovarian Cancer) (Homo sapiens, five-dose, read-out: IC50 (cell marked * in GI50 column) (converted)) was 3630 nM; in series [3], 770 nM; in series [3] (72 h), 765 ± 30 nM. The growth percent in the series on OVCAR-8 (Ovarian Cancer) is reported as 15.99%; with SF-268 (CNS Cancer) it was 54.09%; in the series on HL-60 (TB) (Leukemia) (48 h) it was −36.28%. Besides, the 50% growth inhibitory concentration (GI50) was determined as 58.9 nM in the series on SF-268 (CNS Cancer) (Homo sapiens, five-dose); 24.5 nM with HL-60 (TB) (Leukemia) (48 h); 24 nM in the series with HL-60 (TB) (Leukemia) (Homo sapiens, HL-60, 48 h).

As for `COc1ccc(/C=C/C(c2cc(OC)c(OC)c(OC)c2)n2cncn2)cc1` (stereo not shown) [Compound 22a, (E)-1-(3-(4-Methoxyphenyl)-1-(3,4,5-trimethoxyphenyl)allyl)-1H-1,2,4-triazole], the viability at 72 h, 0.4 µM in series [2] (72 h) was more than 80%. Moreover, the viability at 24 h, 1 µM in series [2] (setting [4]) turned out to be 100%. The viability at 48 h, 1 µM in series [2] (1 μM, read-out: viable cells) was more than 80%. In addition, the viability at 24 h, 10 µM in series [2] (10 μM, 24 h, read-out: viable cells) is 78%. In addition, the viability at 48 h, 10 µM in series [2] (10 μM, read-out: viable cells) was approximately 57%. Moreover, the growth percent in the series on OVCAR-8 (Ovarian Cancer) was 52.16%; in the series with SF-268 (CNS Cancer), 57.07%; with HL-60 (TB) (Leukemia) (48 h), −17.94%.

In the case of `COc1cc(/C=C/C(/C=C/c2cc(OC)c(OC)c(OC)c2)n2ccnc2)cc(OC)c1OC` [Compound 30, 1-((1E,4E)-1,5-bis(3,4,5-trimethoxyphenyl)penta-1,4-dien-3-yl)-1H-imidazole], the growth percent came out at 83.74% with OVCAR-8 (Ovarian Cancer), 91.93% in the series with SF-268 (CNS Cancer) and 70.60% in the series on HL-60 (TB) (Leukemia) (48 h).

For the compound `COc1ccc(C2CC(n3ccnc3)c3cc(OC)c(OC)c(OC)c32)cc1O` (stereo not shown) [Compound 27a, 5-(3-(1H-Imidazol-1-yl)-5,6,7-trimethoxy-2,3-dihydro-1H-inden-1-yl)-2-methoxyphenol], the growth percent with OVCAR-8 (Ovarian Cancer) turned out to be 89.25%; in the series on SF-268 (CNS Cancer), 89.96%; in the series with HL-60 (TB) (Leukemia) (48 h), 83.57%.

Regarding `COc1ccc(/C=C/C(c2cc(OC)c(OC)c(OC)c2)n2ccnc2)cc1O` (stereo not shown) [Compound 23b, (E)-5-(3-(1H-Imidazol-1-yl)-3-(3,4,5-trimethoxyphenyl)prop-1-en-1-yl)-2-methoxyphenol], the growth percent with OVCAR-8 (Ovarian Cancer) is given as 40.97%; in the series on SF-268 (CNS Cancer), 56.10%; with HL-60 (TB) (Leukemia) (48 h), −36.59%.
